Source: patent US9795687B2, “Modularly assembled small molecules for the treatment of myotonic dystrophy type 1” (The Scripps Research Institute, priority 2013, dated 2017)

How the values were obtained:
r(GC)8 = assay: SPR binding kinetics to r(GC)8
Experimental: The binding of 2H-K4NMe to various RNAs including r(CUG)12, r(CAG)12, r(AU)12 and r(GC)δ was studied by surface plasmon resonance (SPR) spectrometry. […] In summary, 2H-K4NMe is selective for r(CUG)12 by ˜30-100-fold over the other RNAs studied (Table 2). In general, it has a faster association rate (kon) and a slower dissociation rate (koff) when binding to r(CUG)12 compared to the other RNAs.
On rates, off rates and Kobs values were measured using a ForteBio OctetRed spectrophotometer and Streptavidin SA dip-and-read biosensors (ForteBio). Sensors were pre-equilibrated in 1X Kinetics Buffer (ForteBio) prior to beginning measurements. 5′-Biotinylated r(CUG)12 was folded by heating in 1X Kinetics Buffer at 60° C. for 5 min followed by slow cooling to room temperature on the bench top. Measurements were completed by incubating sensors sequentially in 200 μL of: 1X Kinetics Buffer, 540 nM 5′-biotinylated RNA, 1X Kinetics Buffer, compound of interest or MBNL1 (varying concentrations; seven 1:2 dilutions in 1X Kinetics Buffer), and finally 1X Kinetics Buffer. Data were fit using ForteBio's Data Analysis 7.0 software. MBNL1 and II (monomer) data were fit using a 1:1 model. This model fits one analyte in solution binding to one binding site on the surface. 2H-K4NMe and 2H-4 data were fit using a 2:1 heterogeneous ligand model. This model fits the binding of one analyte in solution to two different binding sites on the surface. Kinetic parameters are calculated for both interactions.

[1] = test system: Clcn1 and Serca1 (Atp2a1) alternative splicing in HSA^LR mice; assay: Alternative pre-mRNA splicing in DM1 mouse model (HSA^LR), RT-PCR of vastus muscle; assay type: in vivo
Text: 2H-K4NMe was selected for animal studies based on overall performance in cell-based assays, increased proteolytic stability as compared to 2H-KNH and decreased structural complexity compared to 2H-K4NPr. A mouse model of DM1 has been reported in which 250 rCUG repeats are expressed using an actin promoter (human skeletal actin long repeat, HSA^LR).^24 The presence of these repeats results in dysregulation of alternative splicing in the muscle-specific chloride ion channel (Clcn1) and the sarcoplasmic/endoplasmic reticulum calcium ATPase 1 (Serca1/Atp2a1) pre-mRNAs. Clcn1 exon 7a is excluded ˜100% in mRNA from normal adult mice; DM1 mice have an exclusion rate of ˜50%. After DM1 mice were treated for 7 days with 100 mg/kg/d of 2H-K4NMe, the exclusion rate of exon 7A was restored to 71% (p-value=0.007) (FIGS. 7 and 11). Mis-splicing of Serca1 exon 21 was also partially rescued. The exon 22 inclusion rate is ˜100% in normal adult mice and ˜11.8% in DM1 mice.
All experimental procedures, mouse handling, and husbandry were completed in accordance with the Association for Assessment and Accreditation of Laboratory Animal Care. A mouse model for DM1, HSA^LR in line 20b, was used.^24 HSA^LR mice express human skeletal actin RNA with 250 CUG repeats in the 3′ UTR. Age- and gender-matched HSA^LR mice were injected intraperitoncally with 100 mg/kg 2H-K4NMe in water for treatment or 0.9% NaCl for control once per day for 7 days. Mice were sacrificed one day after the last injection, and the vastus muscle was obtained. RNA was extracted from the vastus tissue, and cDNA was synthesized as previously described.^65
PCR amplification was carried out for 26-30 cycles with the following primer pairs: Clcn1 forward 5′-[…] (SEQ ID NO:5) and reverse 5′-(6FAM)[…] (SEQ ID NO:6); Secral forward 5′-(6FAM)[…] (SEQ ID NO:7) and reverse 5′- […] (SEQ ID NO:8). The PCR products were separated by agarose gel electrophoresis. The gel was scanned with a laser fluorimager (Typhoon, GE Healthcare), and the products were quantified using ImageQuant.

[2] = r(GC)8, two component binding isotherm

Selectivity for r(CUG)12 (r(GC)8; over r(GC)8): 107
kon (1) (r(GC)8; r(GC)8): 58600 M⁻¹ s⁻¹
kon (2) (r(GC)8; r(GC)8): 24800 M⁻¹ s⁻¹
Kd (r(GC)8; r(GC)8, read-out: Kobs (1)): 1400 nM
koff (1) (r(GC)8; [2]): 0.0822 s⁻¹
koff (2) (r(GC)8; [2]): 0.105 s⁻¹
SMILES: C[C@@H](C(=O)N(C)[C@@H](C)C(=O)N(C)[C@@H](C)C(=O)N(C)[C@@H](C)C(=O)N[C@@H](CCCCNC(=O)CCCOc1cccc(-c2nc3cc(-c4nc5cc(N6CCN(C)CC6)ccc5[nH]4)ccc3[nH]2)c1)C(N)=O)N(C)C(=O)CCCOc1cccc(-c2nc3ccc(-c4nc5cc(N6CCN(C)CC6)ccc5[nH]4)cc3[nH]2)c1 [Compound 2H-K4NMe]
effect on alternative splicing of Itgb1 and CapZB mRNAs (not regulated by MBNL1) ([1]; 100 mg/kg/d for 7 days): did not affect
Serca1 exon 22 inclusion rate ([1]; 100 mg/kg/d for 7 days, DM1 mice ˜11.8%, normal ˜100%): 21.5%
Clcn1 exon 7a exclusion rate ([1]; 100 mg/kg/d intraperitoneally for 7 days, DM1 mice ˜50%, normal ˜100%): 71%
